#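 Dose response: 5 concentrations. Exposure: 48 h. Format: 96-well plates. Endpoint: linear interpolation; highest concentration if not reached. GI50 is the concentration that inhibits growth by half.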 Activity calls are given as the source filed them. Cut-off read from the data, not from the text of the source: active = GI50 up to about 1.1 µM and inactive = higher.
# Experiments:
# Assay in all cases: NCI anticancer screen, dose series, 48 h
# 786-0 = tested on: 786-0
# A549 = tested on: A549
# BT-549 = tested on: BT-549
# CAKI-1 = tested on: CAKI-1
# CCRF-CEM = tested on: CCRF-CEM
# COLO 205 = tested on: COLO 205
# DU-145 = tested on: DU-145
# EKVX = tested on: EKVX
# HCT-116 = tested on: HCT-116
# HCT-15 = tested on: HCT-15
# HL-60 = tested on: HL-60
# HOP-62 = tested on: HOP-62
# HOP-92 = tested on: HOP-92
# HT-29 = tested on: HT-29
# Hs-578T = tested on: Hs-578T
# IGROV-1 = tested on: IGROV-1
# K562 = tested on: K562
# KM12 = tested on: KM12
# LOX IMVI = tested on: LOX IMVI
# M14 = tested on: M14
# MDA-MB-435 = tested on: MDA-MB-435
# MDA-N = tested on: MDA-N
# MOLT-4 = tested on: MOLT-4
# Malme-3M = tested on: Malme-3M
# NCI-H23 = tested on: NCI-H23
# NCI/ADR-RES = tested on: NCI/ADR-RES
# OVCAR-3 = tested on: OVCAR-3
# OVCAR-4 = tested on: OVCAR-4
# OVCAR-5 = tested on: OVCAR-5
# OVCAR-8 = tested on: OVCAR-8
# RPMI-8226 = tested on: RPMI-8226
# RXF 393 = tested on: RXF 393
# SF-268 = tested on: SF-268
# SF-295 = tested on: SF-295
# SK-OV-3 = tested on: SK-OV-3
# SN12C = tested on: SN12C
# SNB-19 = tested on: SNB-19
# SNB-75 = tested on: SNB-75
# SR = tested on: SR
# SW-620 = tested on: SW-620
# T47D = tested on: T47D
# UO-31 = tested on: UO-31
smiles,measurement,setting,value
O=c1[nH]nc(-c2ccccc2)c2[nH]c(-c3ccccc3)cc12,GI50,786-0,> 100 µM (inactive)
same,GI50,A549,> 100 µM (inactive)
same,GI50,BT-549,> 100 µM (inactive)
same,GI50,CAKI-1,> 100 µM (inactive)
same,GI50,CCRF-CEM,> 100 µM (inactive)
same,GI50,COLO 205,> 100 µM (inactive)
same,GI50,DU-145,> 100 µM (inactive)
same,GI50,EKVX,> 100 µM (inactive)
same,GI50,HCT-116,> 100 µM (inactive)
same,GI50,HCT-15,68.5 µM
same,GI50,HL-60,> 100 µM (inactive)
same,GI50,HOP-62,> 100 µM (inactive)
same,GI50,HOP-92,> 100 µM (inactive)
same,GI50,HT-29,12.2 µM (inactive)
same,GI50,Hs-578T,> 100 µM (inactive)
same,GI50,IGROV-1,> 100 µM (inactive)
same,GI50,K562,50.8 µM (inactive)
same,GI50,KM12,> 100 µM (inactive)
same,GI50,LOX IMVI,> 100 µM (inactive)
same,GI50,M14,> 100 µM (inactive)
same,GI50,MDA-MB-435,> 100 µM (inactive)
same,GI50,MDA-N,> 100 µM (inactive)
same,GI50,MOLT-4,39 µM (inactive)
same,GI50,Malme-3M,> 100 µM (inactive)
same,GI50,NCI-H23,> 100 µM (inactive)
same,GI50,NCI/ADR-RES,> 100 µM (inactive)
same,GI50,OVCAR-3,> 100 µM (inactive)
same,GI50,OVCAR-4,> 100 µM (inactive)
same,GI50,OVCAR-5,> 100 µM (inactive)
same,GI50,OVCAR-8,> 100 µM (inactive)
same,GI50,RPMI-8226,88.3 µM (inactive)
same,GI50,RXF 393,> 100 µM (inactive)
same,GI50,SF-268,> 100 µM (inactive)
same,GI50,SF-295,> 100 µM (inactive)
same,GI50,SK-OV-3,> 100 µM (inactive)
same,GI50,SN12C,> 100 µM (inactive)
same,GI50,SNB-19,> 100 µM (inactive)
same,GI50,SNB-75,45.8 µM (inactive)
same,GI50,SR,38.8 µM (inactive)
same,GI50,SW-620,> 100 µM (inactive)
same,GI50,T47D,25.5 µM (inactive)
same,GI50,UO-31,> 100 µM (inactive)

# — ChEMBL document CHEMBL1201862, “PubChem BioAssay data set” (2004)
